{"source": "patent US20090306045A1", "about": "“Inhibition of Glycogen Synthase Kinase and Methods of Treating Autoimmune or Immune Inflammatory Disease” (priority 2005, published 2009)", "key": {"GSK3β": {"biological_target": "GSK3β (Homo sapiens, UniProt P49841)", "sequence (P49841 whole entry, species assumed)": "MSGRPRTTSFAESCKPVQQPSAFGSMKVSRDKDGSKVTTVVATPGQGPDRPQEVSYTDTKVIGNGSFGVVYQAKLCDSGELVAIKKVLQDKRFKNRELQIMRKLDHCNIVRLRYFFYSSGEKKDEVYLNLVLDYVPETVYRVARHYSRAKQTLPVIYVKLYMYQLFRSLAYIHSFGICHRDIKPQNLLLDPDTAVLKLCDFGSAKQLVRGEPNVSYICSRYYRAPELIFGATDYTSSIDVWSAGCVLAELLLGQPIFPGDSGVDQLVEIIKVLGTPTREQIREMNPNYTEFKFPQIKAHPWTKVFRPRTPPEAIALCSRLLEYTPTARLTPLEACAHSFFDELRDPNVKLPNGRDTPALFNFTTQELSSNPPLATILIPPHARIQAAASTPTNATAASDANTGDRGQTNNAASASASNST", "settings": "cited from earlier work"}, "β-catenin [1]": {"system": "β-catenin", "test": "Cytosolic β-catenin accumulation in human DCs (cell fractionation, Western blot)", "format": "cell-based", "settings": "human DCs (not shown)"}, "DCs [2]": {"system": "DCs", "test": "Cytokine and chemokine production by treated DCs", "format": "cell-based", "description": "The ability of the GSK3β inhibitor SB216763 to induce maturation was particularly striking. While it is possible this effect was limited to the dramatic increase in free β-catenin, GSK3β also has other targets. For example, by inhibiting GSK3β-mediated phosphorylation of NF-AT, this transcriptional activator would be more readily translocated into the nucleus, possibly synergyzing with β-catenin (Crabtree and Olson, 2002). Other potential mediators (eg Hedgehog, p53, c-myc) might also be affected (Doble and Woodgett, 2003). […] Cytokine and chemokine multiplex analysis The levels of cytokines and chemokines were measured with Luminex suspension array technology. Supernatants were collected and frozen at −80° C. For human CD34^+-derived DCs, cell culture supernatants were then analyzed using the Beadlyte cytokine assay kit (Upstate) with manufacturer's protocol. For mouse cytokines, supernatants were analyzed using the Bio-Plex cytokine assay kit and supporting reagents (BioRad) following manufacturer's procedures."}, "active β-catenin": {"system": "active β-catenin", "test": "Active β-catenin by sequential immunoprecipitation and immunoblotting in BMDCs", "format": "cell-based", "settings": "bone marrow-derived DC cultures", "description": "Bone marrow-derived DC cultures were either treated with LPS, SB216763 or cluster disruption (CD). CD11c^+ cells were purified and same number of cells were used to make cell lysates as described. Cell lysates were then subject to sequential immunoprecipitation with antibodies against E-cadherin and β-catenin, followed by immunoblotting with antibodies against E-cadherin (top), active β-catenin (middle) and total β-catenin (bottom).\nBMDCs were either treated with LPS or CD and cell lysates from CD11c^+ DCs were subject to sequential immunoprecipitation with antibodies against E-cadherin and β-catenin, followed by immunoblotting with antibodies against E-cadherin (top), active β-catenin (middle) and total β-catenin (bottom).\nReagents and Antibodies Rat anti-E-cadherin, mouse anti-β-catenin, mouse anti-p120 catenin were purchased from BD Transduction Laboratories (Lexington, Calif.). Both mouse anti-E-cadherin (HECD-1 and SHE78-7) and rat anti-E-cadherin (ECCD-1 and 2) monoclonal antibodies were obtained from Zymed (San Francisco, Calif.). Rat monoclonal anti-E-cadherin and rabbit polyclonal β-catenin were obtained from Sigma-Aldrich. […] Flow Cytometry Assays Cells were stained for 30 min on ice with primary antibody and if necessary secondary antibody, washed, and then evaluated on a FACSCalibur™ (Becton Dickinson). […]"}, "DCs [3]": {"system": "DCs", "test": "MHC class II redistribution in DCs by immunofluorescence", "format": "cell-based", "settings": "immunofluorescence (not shown)"}, "CD11c+ DCs": {"system": "CD11c+ DCs", "test": "DC maturation of murine BMDCs, CD86 expression by FACS", "format": "cell-based, mouse", "method": "BMDCs were prepared as described and CD11c^+ DCs were purified at day 6 and replated at 5×10^5 cells/ml.\nCD11c^+ DCs after different stimuli were subject to FACS analysis.\nSB 216763 was purchased from Tocris Cookson Inc. (Ellisville, Mo.). […] Flow Cytometry Assays Cells were stained for 30 min on ice with primary antibody and if necessary secondary antibody, washed, and then evaluated on a FACSCalibur™ (Becton Dickinson). […] Cell Culture and purification of DC, OT-I and OT-II T cells Mouse DM-derived CD11c^+ DCs were isolated using anti-CD11c-conjugated beads and columns (Miltenyi Biotech) according to the manufacturer's protocol. The resulted CD11c^+ DCs were then resuspended in the same culture media at 5-10×10^5 cells/ml; these cells were in single cell suspension and thus referred as cluster-disrupted cells."}, "β-catenin [4]": {"system": "β-catenin", "test": "Cytosolic β-catenin accumulation in murine DCs (cell fractionation, Western blot)", "format": "cell-based", "settings": "murine immature DCs, different doses", "method": "BMDCs were treated with either LPS or different doses of SB216763. CD11c^+ DCs were then fractionated into membrane and cytosolic fractions, followed by immunoblotting with antibodies against β-catenin (top) and E-cadherin (middle). Akt was probed as a loading control (bottom).\nSB 216763 was purchased from Tocris Cookson Inc. (Ellisville, Mo.). […] Cell Culture and purification of DC, OT-I and OT-II T cells Mouse DM-derived CD11c^+ DCs were isolated using anti-CD11c-conjugated beads and columns (Miltenyi Biotech) according to the manufacturer's protocol. The resulted CD11c^+ DCs were then resuspended in the same culture media at 5-10×10^5 cells/ml; these cells were in single cell suspension and thus referred as cluster-disrupted cells. […] Cell fractionation, Immunoprecipitation and Western blotting Cells were homogenized in hypotonic buffer (10 mM HEPES-KOH pH 7.4, 1.5 mM MgCl2, 10 mM KCl, 0.5 mM DTT) with proteinase and phosphatase inhibitors by passing through 30 gauge needles for 10 times. Postnuclear fractions were centrifuged at 45,000 rpm for 45 min to separate membrane and cytosol fractions. Total cell lysates were obtained with 1% NP-40 lysis buffer (1% Nonidet P-40, 150 mM NaCl, 20 mM Tris, and ImM EDTA (pH 7.5)) supplemented with proteinase and phosphatase inhibitors."}}, "note": "Entries after “also recorded” stand apart in the source; their conditions may differ.", "data": [{"compound": "Cn1cc(C2=C(c3ccc(Cl)cc3Cl)C(=O)NC2=O)c2ccccc21", "note": "[SB216763]", "values": [{"measurement": "selectivity as GSK3β inhibitor", "setting": "GSK3β", "value": "selective inhibitor of GSK3β"}, {"measurement": "accumulation of β-catenin in the cytosol", "setting": "β-catenin [1]", "value": "dose-dependent accumulation of β-catenin in the cytosol"}, {"measurement": "production of inflammatory cytokines", "setting": "DCs [2]", "value": "failed to induce the production of inflammatory cytokines"}, {"measurement": "formation of chemokines (eg IP10, MCP-1, MIP-α, CXCL8)", "setting": "DCs [2]; compared with cluster disruption", "value": "induced the formation of the same array of chemokines as did CD"}, {"measurement": "activation of β-catenin (active, non-phosphorylated β-catenin)", "setting": "active β-catenin", "value": "Resulted in Activation of β-Catenin"}, {"measurement": "mature DC phenotype, MHC class II distribution", "setting": "DCs [3]", "value": "MHC class II molecules redistributing from lysosomes to the plasma membrane"}, {"measurement": "effectiveness at triggering DC maturation compared with LPS and cluster disruption (CD)", "setting": "CD11c+ DCs; 10 μM", "value": "nearly as effective as LPS at triggering DC maturation, and slightly more effective than CD"}, {"measurement": "mature population (percentage of cells expressing high CD86)", "setting": "CD11c+ DCs; added to immature DCs, different doses", "value": "increased in a dose-dependent manner; also recorded: results in DC maturation"}, {"measurement": "accumulation of β-catenin in the cytosol", "setting": "β-catenin [4]", "value": "dose-dependent accumulation of β-catenin in the cytosol; also recorded: Dose-dependent accumulation of cytosolic β-catenin"}]}]}
